Activity calls are given as the source filed them. No cut-off for these calls is given here.
Assays:
[1] = molecular target: Dipeptidyl peptidase IV (Porphyromonas gingivalis) (UniProt O31048); test: Inhibition of Porphyromonas gingivalis N-terminal His-tagged DPP4 expressed in Escherichia coli at 10 uM using Gly-Pro-p-nitroanilide as substrate relative to control
[2] = molecular target: Dipeptidyl peptidase IV (Porphyromonas gingivalis) (UniProt O31048); test: Inhibition of Porphyromonas gingivalis N-terminal His-tagged DPP4 expressed in Escherichia coli using Gly-Pro-p-nitroanilide as substrate after 1 hr
Dipeptidyl peptidase IV [3] = molecular target: T1, Dipeptidyl peptidase IV (Porphyromonas gingivalis, UniProt O31048); test: Inhibition of Porphyromonas gingivalis N-terminal His-tagged DPP4 expressed in Escherichia coli using Gly-Pro-p-nitroanilide as substrate
T1 sequence (O31048 20-723 limits assumed): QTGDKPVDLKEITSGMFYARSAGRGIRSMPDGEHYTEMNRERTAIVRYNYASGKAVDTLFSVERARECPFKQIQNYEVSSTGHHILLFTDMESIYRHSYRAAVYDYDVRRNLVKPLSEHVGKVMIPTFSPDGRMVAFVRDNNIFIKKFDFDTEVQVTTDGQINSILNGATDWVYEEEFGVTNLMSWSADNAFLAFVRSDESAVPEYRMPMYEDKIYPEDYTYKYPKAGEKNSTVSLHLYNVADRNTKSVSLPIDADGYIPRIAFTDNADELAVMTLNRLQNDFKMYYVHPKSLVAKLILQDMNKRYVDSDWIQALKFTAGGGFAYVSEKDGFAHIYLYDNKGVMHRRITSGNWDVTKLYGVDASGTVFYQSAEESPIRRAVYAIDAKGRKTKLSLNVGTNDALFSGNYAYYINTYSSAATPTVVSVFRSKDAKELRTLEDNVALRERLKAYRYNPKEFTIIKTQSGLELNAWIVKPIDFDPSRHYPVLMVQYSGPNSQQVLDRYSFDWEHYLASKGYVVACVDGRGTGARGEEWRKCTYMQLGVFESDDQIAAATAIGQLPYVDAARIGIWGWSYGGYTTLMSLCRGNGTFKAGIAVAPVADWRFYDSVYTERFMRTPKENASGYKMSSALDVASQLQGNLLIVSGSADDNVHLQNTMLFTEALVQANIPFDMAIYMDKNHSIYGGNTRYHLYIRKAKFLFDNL

[4] = Selectivity index, ratio of IC50 for human DPP4 to IC50 for Porphyromonas gingivalis N-terminal His-tagged DPP4 expressed in Escherichia coli
[5] = molecular target: Dipeptidyl peptidase IV (Porphyromonas gingivalis) (UniProt O31048); test: Inhibition of Porphyromonas gingivalis N-terminal His-tagged DPP4 expressed in Escherichia coli at 100 uM using Gly-Pro-p-nitroanilide as substrate relative to control
Dipeptidyl peptidase 9 = Dipeptidyl peptidase 9 (Bos taurus, UniProt E1BI31); test: Inhibition of bovine DPP9
Sequence of Dipeptidyl peptidase 9 (E1BI31 whole entry): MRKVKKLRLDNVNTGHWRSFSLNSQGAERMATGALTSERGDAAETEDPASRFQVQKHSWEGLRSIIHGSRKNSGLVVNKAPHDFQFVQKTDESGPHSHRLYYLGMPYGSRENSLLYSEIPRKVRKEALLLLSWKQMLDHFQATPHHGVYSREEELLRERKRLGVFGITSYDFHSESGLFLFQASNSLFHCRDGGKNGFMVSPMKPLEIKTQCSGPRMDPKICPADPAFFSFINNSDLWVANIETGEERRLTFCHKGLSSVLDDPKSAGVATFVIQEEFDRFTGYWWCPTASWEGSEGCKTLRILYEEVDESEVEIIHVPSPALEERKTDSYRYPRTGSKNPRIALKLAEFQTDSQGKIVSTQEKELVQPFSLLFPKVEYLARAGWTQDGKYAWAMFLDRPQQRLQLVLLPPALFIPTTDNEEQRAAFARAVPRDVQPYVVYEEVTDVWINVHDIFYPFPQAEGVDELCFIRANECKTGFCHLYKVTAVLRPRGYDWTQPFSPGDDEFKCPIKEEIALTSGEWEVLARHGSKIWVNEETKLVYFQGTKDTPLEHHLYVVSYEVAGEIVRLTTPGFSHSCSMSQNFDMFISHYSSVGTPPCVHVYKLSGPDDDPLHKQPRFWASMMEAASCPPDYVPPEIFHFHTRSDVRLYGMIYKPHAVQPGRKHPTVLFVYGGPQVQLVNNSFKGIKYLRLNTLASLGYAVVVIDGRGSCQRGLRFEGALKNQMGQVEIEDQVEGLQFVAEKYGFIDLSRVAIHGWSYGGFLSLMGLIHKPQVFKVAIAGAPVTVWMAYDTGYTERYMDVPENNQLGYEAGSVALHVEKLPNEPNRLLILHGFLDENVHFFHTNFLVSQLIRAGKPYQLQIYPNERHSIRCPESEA

Dipeptidyl peptidase IV [6] = molecular target: T1, Dipeptidyl peptidase IV; test: Inhibition of Porphyromonas gingivalis N-terminal His-tagged DPP4 expressed in Escherichia coli using Gly-Pro-p-nitroanilide as substrate preincubated for 15 mins

Sequence of Dipeptidyl peptidase IV (Porphyromonas gingivalis) (O31048 20-723 limits assumed): as the sequence (O31048 20-723 limits assumed) above

Row | SMILES | inhibition [1] [%] | inhibition [2] | IC50 (Dipeptidyl peptidase IV [3]; read-out: IC50) [nM] | Ratio IC50 [4] | inhibition [5] [%] | IC50 (Dipeptidyl peptidase IV [3]) | IC50 (Dipeptidyl peptidase 9) [nM] | Ki (Dipeptidyl peptidase IV [6]) [nM]
1 | CC[C@@H](C)[C@H](N)C(=O)N1C[C@@H](N=[N+]=[N-])C[C@H]1C#N | > 50 | Active | 230 | 1.26 to 1.3 | < 50 | – | – | –
2 | CC#CCn1c(N2CCC[C@@H](N)C2)nc2c1c(=O)n(Cc1nc(C)c3ccccc3n1)c(=O)n2C [LINAGLIPTIN] | > 50 | – | – | – | < 50 | IC50 10-100 uM | > 100000 | –
3 | N#C[C@@H]1CCCN1C(=O)CNC12CC3CC(CC(O)(C3)C1)C2 [VILDAGLIPTIN] | > 50 | Active | 1300 | – | – | – | – | 17
4 | N[C@@H](CCNCc1ccc(Cl)cc1)C(=O)N1CCCCC1 | > 50 | – | > 100000 | – | – | – | 76600 | –
5 | NC(CC(=O)N1CCN(C(c2ccc(F)cc2)c2ccc(F)cc2)CC1)C(=O)N1Cc2ccc(F)cc2C1 (stereo not drawn) | > 50 | – | 22000 | 2.7 | < 50 | – | – | –
6 | N#C[C@@H]1C[C@H](N=[N+]=[N-])CN1C(=O)[C@@H](N)CCCCNC(=O)OCc1ccccc1 | > 50 | Active | 300 | 1.76 to 1.8 | < 50 | – | – | –

Now from value to compound:

Row | inhibition [1] [%] | inhibition [2] | IC50 (Dipeptidyl peptidase IV [3]; read-out: IC50) [nM] | Ratio IC50 [4] | inhibition [5] [%] | IC50 (Dipeptidyl peptidase IV [3]) | IC50 (Dipeptidyl peptidase 9) [nM] | Ki (Dipeptidyl peptidase IV [6]) [nM] | SMILES
7 | > 50 | Active | 79 | 7.04 to 7.1 | < 50 | – | – | – | N#C[C@@H]1C[C@H](N=[N+]=[N-])CN1C(=O)[C@@H](N)CCCCNCc1ccc2ccccc2c1
8 | > 50 | – | 11000 | > 4.5 | < 50 | – | – | – | NC(CCCCNCc1ccccc1)C(=O)N1Cc2ccccc2C1 (stereo not drawn)
9 | > 50 | – | 2400 | 0.425 | < 50 | – | – | – | CC1CC(N=[N+]=[N-])CN1C(=O)C(N)CCC(=O)N1CCN(Cc2ccc(F)cc2)CC1 (stereo not drawn)
